We go through 5 compounds from US4064277A, “Method for processing soybeans” (Kikkoman Shoyu Co., Ltd., priority 1974, dated 1977).

The subject of test [1] is β-glycosidase. The test can be described thus: minimum effective amount of competitive inhibitor, operation of Example 1 repeated. To be noted: based on the weight of the whole soybeans. As for the experimental part: 40 Grams of whole soybeans were swelled by soaking at room temperature for 8 hours in 80 ml. of an aqueous solution containing glucono-1,5-lactone as a competitive inhibitor for β-glycosidase in such proportion, based on the weight of the soybeans, as shown in Table 1. In this case, two thirds times the amount of said aqueous solution was incorporated into the soybeans. To the soaked soybeans was added 320 ml. of hot water (at above 95° C.), and the resulting mixture was treated by means of a homogenizer to prepare a ground suspension, which was then filtered by use of a 100-mesh sieve to obtain an extract. The temperature at the time of the homogenization treatment effected with addition of said hot water was above 90° C., and, by said treatment, β-glycosidase contained in the soybeans was completely inactivated, and the mixture was freed from beany odor (grassy smell). The thus obtained extract (soybean milk) was subjected to organoleptic test by drinking to obtain such results as shown in Table 1. The aforesaid operation was repeated, except that the glucono-1,5-lactone was replaced by each of the competitive inhibitors shown in Table 2, and the minimum effective amount of the competitive inhibitor based on the weight of the whole soybeans was calculated. The same operation as in Example 1 was effected, except that the glucono-1,5-lactone was replaced by each of the competitive inhibitors set forth in Table 3, and the minimum effective amount of the competitive inhibitor based on the weight of the whole soybeans was calculated.

Test [2] concerns β-glycosidase. The test can be described thus: β-glycosidase inhibitory ratio in soaked whole soybeans (p-nitrophenyl-β-D-glucopyranoside substrate, 420 mμ). Format: biochemical. Conditions: for β-Glycosidase inhibitory ratio (%): soaking 8 hours at room temperature. As for the experimental part: 40 Grams of whole soybeans were swelled by soaking at room temperature for 8 hours in 80 ml. of an aqueous solution containing glucono-1,5-lactone as a competitive inhibitor for β-glycosidase in such proportion, based on the weight of the soybeans, as shown in Table 1. In this case, two thirds times the amount of said aqueous solution was incorporated into the soybeans. To the soaked soybeans was added 320 ml. of hot water (at above 95° C.), and the resulting mixture was treated by means of a homogenizer to prepare a ground suspension, which was then filtered by use of a 100-mesh sieve to obtain an extract. The temperature at the time of the homogenization treatment effected with addition of said hot water was above 90° C., and, by said treatment, β-glycosidase contained in the soybeans was completely inactivated, and the mixture was freed from beany odor (grassy smell).
^2) The β-glycosidase inhibitory ratio (%) was measured in the
following manner: At the time of soybean soaking, in the above-mentioned
operation, 0.1 weight % based on the weight of the soybeans of
p-nitrophenyl-β-D-glucopyranoside was absorbed together with the
soaking solution into the soybeans. After lapse of the same soaking perio
as mentioned previously, the soybeans were boiled in water for 5 minutes.
Subsequently, the soybeans were soaked in a 2.5M sodium carbonate solutio
to elute p-nitrophenol which had been liberated in the soybeans due to th
action of β-glycosidase. The developed yellow color was determined b
using electrophotometer (420 mμ), and the ratio (%) of
β-glycosidase activity remaining in each sample was subtracted from
100%, assuming as 100% the β-glycosidase activity in the sample of
Run No. 1, which had not been incorporated with glucono-1,5-lactone, to
obtain a value. This value was decided as the inhibitory ratio (%).

Take `C[C@@H]1OC(=O)[C@@H](O)[C@H](O)[C@@H]1O` [Fucono-1,5-lactone, fucono-1,5-lactone]: in the test with β-glycosidase [1], the “Minimum effective amount (weight %)” value was 0.02 weight %. The same measure, in the same setting: with `O=C1O[C@H](CO)[C@H](O)[C@H](O)[C@H]1O` [Galactono-1,5-lactone, galactono-1,5-lactone] the figure was 20 weight %. On to `O=C1O[C@H](CO)[C@@H](O)[C@H](O)[C@H]1O` [Glucono-1,5-lactone, glucono-1,5-lactone], for which the “β-Glycosidase inhibitory ratio (%)” value in the test with β-glycosidase [2] (Run No. 2: amount used 0.0015 weight %, incorporated into soybeans 0.0010 weight %) was 13%; in the test with β-glycosidase [2] (Run No. 3: amount used 0.015 weight %, incorporated into soybeans 0.010 weight %), 49%; in the test with β-glycosidase [2] (Run No. 4: amount used 0.15 weight %, incorporated into soybeans 0.10 weight %) it was 73%; with β-glycosidase [2] (Run No. 5: amount used 1.5 weight %, incorporated into soybeans 1.0 weight %), 90%. In the test with β-glycosidase [2] (whole soybeans impregnated with 0.10 weight % or more, as aqueous solution), the “activity of β-glycosidase in the soybeans” value is given as “greatly inhibited”. With `OC[C@H]1OC(O)[C@H](O)[C@@H](O)[C@@H]1O` (stereo partly drawn) [Glucose, glucose], the “Minimum effective amount (weight %)” value in the test with β-glycosidase [1] amounted to 40 weight %. The same measure, in the same setting: the result for `OC[C@H]1NC(O)[C@H](O)[C@@H](O)[C@@H]1O` (stereo partly drawn) [Nojirimycin] reads 0.01 weight %.
